Results on two compounds are retold here after US9416125B2, “Substituted cycloalkenopyrazoles as BUB1 inhibitors for the treatment of cancer” (BAYER PHARMA AKTIENGESELLSCHAFT, priority 2012, dated 2016).

Experiment [1] addresses T1, catalytic domain of human Bub1 (amino acids 704-1085) (Homo sapiens, UniProt O43683).
T1 construct: catalytic domain of human Bub1 (amino acids 704-1085); His6 (N); made in house; host or cells: Hi5 insect cells
In words: Bub1 kinase assay (TR-FRET). Conditions: 10 μM ATP, 1 μM peptide substrate, median, read-out: Biological Assay 1: Bub1 kinase assay median IC50. The format is biochemical. The source says: Bub1-inhibitory activities of compounds described in the present invention were quantified using a time-resolved fluorescence energy transfer (TR-FRET) kinase assay which measures phosphorylation of the synthetic peptide Biotin-Ahx-VLLPKKSFAEPG (C-terminus in amide form), purchased from e.g. Biosyntan (Berlin, Germany) by the (recombinant) catalytic domain of human Bub1 (amino acids 704-1085), expressed in Hi5 insect cells with an N-terminal His6-tag and purified by affinity- (Ni-NTA) and size exclusion chromatography.
In a typical assay 11 different concentrations of each compound (0.1 nM, 0.33 nM, 1.1 nM, 3.8 nM, 13 nM, 44 nM, 0.15 μM, 0.51 μM, 1.7 μM, 5.9 μM and 20 μM) were tested in duplicate within the same microtiter plate. To this end, 100-fold concentrated compound solutions (in DMSO) were previously prepared by serial dilution (1:3.4) of 2 mM stocks in a clear low volume 384-well source microtiter plate (Greiner Bio-One, Frickenhausen, Germany), from which 50 nL of compounds were transferred into a black low volume test microtiter plate from the same supplier. Subsequently, 2 μL of Bub1 (the final concentration of Bub1 was adjusted depending on the activity of the enzyme lot in order to be within the linear dynamic range of the assay: typically ˜200 ng/mL were used) in aqueous assay buffer [50 mM Tris/HCl pH 7.5, 10 mM magnesium chloride (MgCl2), 200 mM potassium chloride (KCl), 1.0 mM dithiothreitol (DTT), 0.1 mM sodium ortho-vanadate, 1% (v/v) glycerol, 0.01% (w/v) bovine serum albumine (BSA), 0.005% (v/v) Trition X-100 (Sigma), 1× Complete EDTA-free protease inhibitor mixture (Roche)] were added to the compounds in the test plate and the mixture was incubated for 15 min at 22° C. to allow pre-equilibration of the putative enzyme-inhibitor complexes before the start of the kinase reaction, which was initiated by the addition of 3 μL 1.67-fold concentrated solution (in assay buffer) of adenosine-tri-phosphate (ATP, 10 μM final concentration) and peptide substrate (1 μM final concentration). The resulting mixture (5 μL final volume) was incubated at 22° C. during 60 min, and the reaction was stopped by the addition of 5 μL of an aqueous EDTA-solution (50 mM EDTA, in 100 mM HEPES pH 7.5 and 0.2% (w/v) bovine serum albumin) which also contained the TR-FRET detection reagents (0.2 μM streptavidin-XL665 [Cisbio Bioassays, Codolet, France] and 1 nM anti-phosho-Serine antibody [Merck Millipore, cat. #35-001] and 0.4 nM LANCE EU-W1024 labeled anti-mouse IgG antibody [Perkin-Elmer, product no. AD0077, alternatively a Terbium-cryptate-labeled anti-mouse IgG antibody from Cisbio Bioassays can be used]). The stopped reaction mixture was further incubated 1 h at 22° C. in order to allow the formation of complexes between peptides and detection reagents. Subsequently, the amount of product was evaluated by measurement of the resonance energy transfer from the Eu-chelate-antibody complex recognizing the Phosphoserine residue to the streptavidin-XL665 bound to the biotin moiety of the peptide. To this end, the fluorescence emissions at 620 nm and 665 nm after excitation at 330-350 nm were measured in GTR-FRET plate reader, e.g. a Rubystar or Pherastar (both from BMG Labtechnologies, Offenburg, Germany) or a Viewlux (Perkin-Elmer) and the ratio of the emissions (665 nm/622 nm) was taken as indicator for the amount of phosphorylated substrate. The data were normalised using two sets of (typically 32-) control wells for high- (=enzyme reaction without inhibitor=0%=Minimum inhibition) and low- (=all assay components without enzyme=100%=Maximum inhibition) Bub1 activity. IC50 values were calculated by fitting the normalized inhibition data to a 4-parameter logistic equation (Minimum, Maximum, IC50, Hill; Y=Max+(Min−Max)/(1+(X/IC50)Hill)).
Background: Time-resolved FRET reads energy transfer from a long-lived donor to a nearby acceptor.

For another experiment, the system named is HeLa cell line. As to the kind of experiment: Proliferation assay (crystal violet staining). The format is cell-based. The conditions noted are these: Homo sapiens, 96 h, 4 days incubation, range 0.001-10 μM, median, read-out: Biological Assay 2: Proliferation assay (HeLa cell line) median IC50. The protocol:
Cultivated tumor cells (cells were ordered from ATCC, except HeLa-MaTu and HeLa-MaTu-ADR, which were ordered from EPO-GmbH, Berlin) were plated at a density of 1000 to 5000 cells/well, depending on the growth rate of the respective cell line, in a 96-well multititer plate in 200 μL of their respective growth medium supplemented 10% fetal calf serum. After 24 h, the cells of one plate (zero-point plate) were stained with crystal violet (see below), while the medium of the other plates was replaced by fresh culture medium (200 μL), to which the test substances were added in various concentrations (0 μM, as well as in the range of 0.001-10 μM; the final concentration of the solvent DMSO was 0.5%). The cells were incubated for 4 days in the presence of test substances. Cell proliferation was determined by staining the cells with crystal violet: the cells were fixed by adding 20 μL/measuring point of an 11% glutaric aldehyde solution for 15 min at rt. After three washing cycles of the fixed cells with water, the plates were dried at rt. The cells were stained by adding 100 μL/measuring point of a 0.1% crystal violet solution (pH 3.0). After three washing cycles of the stained cells with water, the plates were dried at rt. The dye was dissolved by adding 100 μL/measuring point of a 10% acetic acid solution. Absorbtion was determined by photometry at a wavelength of 595 nm. The change of cell number, in percent, was calculated by normalization of the measured values to the aborbtion values of the zero-point plate (=0%) and the absorbtion of the untreated (0 μm) cells (=100%). The IC50 values were determined by means of a 4 parameter fit.

T1 sequence (O43683 704-1085): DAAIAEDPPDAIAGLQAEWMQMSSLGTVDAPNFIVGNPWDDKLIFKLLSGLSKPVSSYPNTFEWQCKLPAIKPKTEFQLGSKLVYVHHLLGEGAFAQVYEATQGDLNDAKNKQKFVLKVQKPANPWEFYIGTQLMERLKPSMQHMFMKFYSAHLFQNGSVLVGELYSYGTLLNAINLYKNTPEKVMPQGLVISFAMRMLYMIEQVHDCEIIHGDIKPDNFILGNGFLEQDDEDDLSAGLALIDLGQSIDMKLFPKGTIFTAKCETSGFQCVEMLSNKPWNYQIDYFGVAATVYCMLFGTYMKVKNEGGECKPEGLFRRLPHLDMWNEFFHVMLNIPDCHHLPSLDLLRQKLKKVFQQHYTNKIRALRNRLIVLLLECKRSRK

`COc1ccc(Cn2nc(-c3ncc(OC)c(Nc4ccncc4)n3)c3c2CCC3)cc1` [Example 2-1-3, 5-methoxy-2-[1-(4-methoxy-benzyl)-1,4,5,6-tetrahydrocyclopenta [c]pyrazol-3-yl]-N-(pyridin-4-yl)pyrimidin-4-amine]: the IC50 in experiment [1] was 50 nM; in the experiment with HeLa cell line, at least 10000 nM.
`COc1cnc(-c2nn(Cc3ccccc3F)c3c2CCCC3)nc1Nc1ccncc1` [Example 2-1-2, 2-[1-(2-fluoro-benzyl)-4,5,6,7-tetrahydro-1H-indazol-3-yl]-5-methoxy-N-(pyridin-4-yl)pyrimidin-4-amine]: the values for the IC50 (in experiment [1]; in the experiment with HeLa cell line) were 10 nM and at least 10000 nM, respectively.
